Source: patent US8791265B2, “Sulfonamido derivatives of 3,4-diarylpyrazoles as protein kinase inhibitors” (Nerviano Medical Sciences S.R.L., priority 2010, dated 2014)

Tests used:
[1] = tested on: human melanoma cells A375 (with a mutated B-RAF); assay: In vitro cell proliferation assay, A375; assay type: cell-based; conditions: A-375, 72 hours treatment, cell number by ATP monitoring
Experimental: (§1) Exponentially growing human melanoma cells A375 (with a mutated B-RAF) and human melanoma cells Mewo (with wild-type B-Raf) were seeded and incubated at 37° C. in a humidified 5% CO2 atmosphere. After 24 hours, scalar doses of the compound were added to the medium and cells oncubated for 72 hours. At the end of treatment, cells were washed and counted. Cell number was determined by a cellular adenosine triphosphate monitoring system. Cell proliferation was compared to control cells and the concentration inhibiting cell growth by 50% was calculated.

[2] = tested on: human melanoma cells Mewo (with wild-type B-Raf); assay: In vitro cell proliferation assay, Mewo; assay type: cell-based; conditions: 72 hours treatment, cell number by ATP monitoring
Experimental: as §1

[3] = tested on: p-MAPK (T202/Y204) in A375 human melanoma cells, having a mutated B-RAF; assay: p-MAPK (T202/Y204) ArrayScan assay; assay type: cell-based; conditions: A-375, 1.5 or 2 hours treatment, p-MAPK cytoplasmatic fluorescence intensity, read-out: Array Scan A375 IC50
Experimental: A375 human melanoma cells, having a mutated B-RAF, are seeded in 384-well poly-lysine coated plates (Matrix) at a density of 1000 cells/well with appropriate medium supplemented with 10% FCS and incubated for 16-24 hours. Cells are treated for 1.5 or 2 hours with increasing doses of compounds (starting dose 10 μM, dilution factor 2.5). At the end of the treatment cells are fixed with p-formaldehyde 3.7% for 15-30 min, then I/well) and permeabilized with D-PBS containing washed twice with D-PBS (80 0.1% Triton X-100 and 1% BSA (Sigma-Aldrich) for 15 minutes at room temperature (staining solution). Anti-phospho-MAPK (T202/Y204) monoclonal antibody E10 (Cell Signaling, cat. #9106) diluted 1:100 is added in staining solution and incubated for 1 hour at 37° C. After removal of the primary antibody solution, the anti-mouse Cy™2-conjugated (Green) secondary antibody (Amersham) diluted 1:500 in staining solution containing 2 μg/ml DAPI is added. The plate is incubated for 1 hour at 37° C., washed twice and then red with Cellomics' ArrayScan VTI (4 fields/well, CytoNucTrans algorithm).
The parameter “MEAN_RingAvgIntenCh2”, which measures the mean cytoplasmatic fluorescence intensity associated to p-MAPK staining, is reported as the final result.

[4] = Stability study in PBS buffer pH 7.4; assay type: physicochemical; conditions: PBS pH 7.4, 37° C., 0-120 minutes, HPLC/MS; FIG. 1
Experimental: (§2) A compound of formula (I) of the present invention, dissolved in DMSO, was incubated at 37° C. in PBS at pH 7.4 or fresh mouse plasma. Aliquots were withdrawn and analysed by HPLC/MS at 0, 5, 15, 60 and 120 minutes. The UV signal in the range 210-400 nm was used for the quantification of the chromatographic peaks either of the compound of formula (I) and the parent compound of formula (II).

[5] = In vitro conversion of prodrug into parent compound in fresh mouse plasma; assay type: in vitro ADME; conditions: 37° C., 0-120 minutes, HPLC/MS, FIG. 2
Experimental: as §2

Row | IC50 [1] [nM] | IC50 [2] [nM] | IC50 [3] [nM] | stability in PBS buffer [4] | Compound | conversion into the parent compound in fresh mouse plasma [5]
1 | 370 | > 10000 | 140 | stable in buffer | CCOC(=O)N(c1ccc(F)c(-c2nn(CC)cc2-c2ccncc2)c1F)S(=O)(=O)c1cc(F)ccc1F [Cmpd. No. 2, ethyl [(2,5-difluorophenyl)sulfonyl]{3-[1-ethyl-4-(pyridin-4-yl)-1H-pyrazol-3-yl]-2,4-difluorophenyl}carbamate] | rapidly converted into the corresponding parent compound
2 | 20 | > 10000 | 20 |  | CCn1cc(-c2ccncc2)c(-c2c(F)ccc(N(C(=O)OC(C)C)S(=O)(=O)c3cc(F)ccc3F)c2F)n1 [Cmpd. No. 4, propan-2-yl [(2,5-difluorophenyl)sulfonyl]{3-[1-ethyl-4-(pyridin-4-yl)-1H-pyrazol-3-yl]-2,4-difluorophenyl}carbamate] | 
3 | 90 | > 10000 | 50 |  | CCn1cc(-c2ccnc(N)c2)c(-c2c(F)ccc(N(C(C)=O)S(=O)(=O)c3cc(F)ccc3F)c2F)n1 [Cmpd. No. 45, N-{3-[4-(2-aminopyridin-4-yl)-1-ethyl-1H-pyrazol-3-yl]-2,4-difluorophenyl}-N-[(2,5-difluorophenyl)sulfonyl]acetamide] | 
4 | 20 | > 10000 | 20 |  | CCn1cc(-c2ccncc2)c(-c2c(F)ccc(N(C(=O)OC)S(=O)(=O)c3cc(F)ccc3F)c2F)n1 [compound 1, methyl [(2,5-difluorophenyl)sulfonyl]{3-[1-ethyl-4-(pyridin-4-yl)-1H-pyrazol-3-yl]-2,4-difluorophenyl}carbamate] | 
5 | 20 | > 10000 | 20 |  | CCCOC(=O)N(c1ccc(F)c(-c2nn(CC)cc2-c2ccncc2)c1F)S(=O)(=O)c1cc(F)ccc1F [compound 3, propyl [(2,5-difluorophenyl)sulfonyl]{3-[1-ethyl-4-(pyridin-4-yl)-1H-pyrazol-3-yl]-2,4-difluorophenyl}carbamate] | 
6 | 20 | > 10000 | 20 |  | CCn1cc(-c2ccncc2)c(-c2c(F)ccc(N(C(C)=O)S(=O)(=O)c3cc(F)ccc3F)c2F)n1 [compound 5, N-[(2,5-difluorophenyl)sulfonyl]-N-{3-[1-ethyl-4-(pyridin-4-yl)-1H-pyrazol-3-yl]-2,4-difluorophenyl}acetamide] | 
7 | 20 | > 10000 | 20 |  | CCn1cc(-c2ccncc2)c(-c2c(F)ccc(N(COC(C)=O)S(=O)(=O)c3cc(F)ccc3F)c2F)n1 [compound 7, ([(2,5-difluorophenyl)sulfonyl]{3-[1-ethyl-4-(pyridin-4-yl)-1H-pyrazol-3-yl]-2,4-difluorophenyl}amino)methyl acetate] | 
8 | 170 | > 10000 | 20 |  | CCOC(=O)N(c1ccc(F)c(-c2nn(C)cc2-c2ccncc2)c1F)S(=O)(=O)c1cc(F)ccc1F [compound 12, ethyl [(2,5-difluorophenyl)sulfonyl]{3-[1-methyl-4-(pyridin-4-yl)-1H-pyrazol-3-yl]-2,4-difluorophenyl}carbamate] | 
